In patent publication US8258151B2, “3-aminoimidazo [1,2-A] pyridine derivatives as SGLT inhibitors” (Merck Patent GmbH, priority 2006, dated 2012):

Assays:
SGLT1 = target: T1, SGLT1 (Homo sapiens, UniProt P13866); test: SGLT1 activity measurement: 14C-AMG uptake in BHK cells transfected with SGLT1; assay type: cell-based; settings: AMG 50 μM, 37° C., 90 min
T1 construct: expressed in transfected cells
T1 sequence (P13866 1-664): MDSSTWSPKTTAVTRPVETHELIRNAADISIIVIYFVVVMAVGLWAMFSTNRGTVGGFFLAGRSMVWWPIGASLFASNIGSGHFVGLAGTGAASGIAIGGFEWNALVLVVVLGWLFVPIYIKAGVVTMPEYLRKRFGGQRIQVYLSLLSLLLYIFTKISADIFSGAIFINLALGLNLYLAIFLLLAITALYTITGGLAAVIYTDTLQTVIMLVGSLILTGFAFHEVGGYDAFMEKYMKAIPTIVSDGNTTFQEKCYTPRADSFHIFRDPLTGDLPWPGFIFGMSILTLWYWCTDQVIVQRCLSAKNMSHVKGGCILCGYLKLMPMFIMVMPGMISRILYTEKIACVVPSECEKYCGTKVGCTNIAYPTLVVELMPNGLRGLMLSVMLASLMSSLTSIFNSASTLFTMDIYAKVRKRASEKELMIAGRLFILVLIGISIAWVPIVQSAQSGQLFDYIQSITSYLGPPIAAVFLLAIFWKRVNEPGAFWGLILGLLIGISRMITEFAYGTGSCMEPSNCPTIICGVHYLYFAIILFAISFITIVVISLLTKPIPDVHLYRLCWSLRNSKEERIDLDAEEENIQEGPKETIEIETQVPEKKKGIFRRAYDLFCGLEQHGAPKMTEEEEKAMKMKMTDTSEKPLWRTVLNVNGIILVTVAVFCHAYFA
Description: (§1) The compounds can be tested on their SGLT inhibition properties by means of BHK cells expressing SGLT1 and SGLT2. The production of the cells and the testing can be carried out as described below.
To construct the SGLT1 expression vector (KL225), the SLC5A1 gene (homologous to NM_000343) was amplified from a cDNA library using standard PCR technology and cloned over NheI/XhoI sites into pcDNA3.1 expression vector (Invitrogen) containing neomycin as a selection marker. In this vector, transcription uses the enhancer/promoter of human cytomegalovirus.
The final vector KL225 together with an additional vector containing a dihydrofolate reductase gene as a selection marker was introduced into cells. Transfection into BHK21 cells (ATCC CCL-10), cultivated in DMEM medium (GIBCO/BRL), supplemented with 10% foetal calf serum (FCS) and 20 mM glutamine, was carried out using calcium phosphate transfections according to Graham, F. L. and van der Ebb, A. J. (1973), Virology 52: 456 with 5-20 μg of uncut plasmids for 10^7 cells. Stable transfectants were selected in medium containing 1 mg/ml of G418 (GIBCO/BRL) and 20-5000 nM methotrexate as final concentration, where only cells which expressed the neomycin gene and overexpressed the dhfr gene were able to grow. After growth for 2-3 weeks, the cells were cloned (0.5 cells/well) and the clones were investigated for SGLT expression in the radioactive uptake assay. […]
(§2) A 96-well cell-based assay was developed and adapted to HTS requirements:
(§3) BHK cells (transfected with SGLT1 or SGLT2) were seeded into 96-well microtitre plates (Cultureplates, Perkin Elmer). After at least 24 h, medium was removed and the cell layer was washed with assay buffer (140 mM NaCl, 2 mM KCl, 1 mM CaCl2, 1 mM MgCl2, 10 mM HEPES, 5 mM Tris, adjusted with 1 M KOH to pH 7.4). After addition of 40 μl of assay buffer, 50 μl of AMG (50 μM for SGLT1 and 2 mM for SGLT2) in the presence or absence of compounds, the cells were incubated in a total volume of 100 μl at 37° C. for 90 min. Supernatant was removed by suction and discarded. The cells were washed and lysed by addition of 50 μl water. After 10 minutes at room temperature 200 μl Microscint 40 (Perkin Elmer) were added. The radioactivity was counted in a Topcount microplate scintillation counter (Perkin Elmer). The non-specific uptake was determined in sodium-free assay buffer (266 mM sucrose, 2 mM KCl, 1 mM CaCl2, 1 mM MgCl2, 10 mM HEPES, 5 mM Tris, adjusted with 1 M KOH to pH 7.4).

SGLT2 = target: T2, SGLT2 (Homo sapiens, UniProt P31639); test: SGLT2 activity measurement: 14C-AMG uptake in BHK cells transfected with SGLT2; assay type: cell-based; settings: AMG 2 mM, 37° C., 90 min
T2 construct: expressed in transfected cells
T2 sequence (P31639 1-672): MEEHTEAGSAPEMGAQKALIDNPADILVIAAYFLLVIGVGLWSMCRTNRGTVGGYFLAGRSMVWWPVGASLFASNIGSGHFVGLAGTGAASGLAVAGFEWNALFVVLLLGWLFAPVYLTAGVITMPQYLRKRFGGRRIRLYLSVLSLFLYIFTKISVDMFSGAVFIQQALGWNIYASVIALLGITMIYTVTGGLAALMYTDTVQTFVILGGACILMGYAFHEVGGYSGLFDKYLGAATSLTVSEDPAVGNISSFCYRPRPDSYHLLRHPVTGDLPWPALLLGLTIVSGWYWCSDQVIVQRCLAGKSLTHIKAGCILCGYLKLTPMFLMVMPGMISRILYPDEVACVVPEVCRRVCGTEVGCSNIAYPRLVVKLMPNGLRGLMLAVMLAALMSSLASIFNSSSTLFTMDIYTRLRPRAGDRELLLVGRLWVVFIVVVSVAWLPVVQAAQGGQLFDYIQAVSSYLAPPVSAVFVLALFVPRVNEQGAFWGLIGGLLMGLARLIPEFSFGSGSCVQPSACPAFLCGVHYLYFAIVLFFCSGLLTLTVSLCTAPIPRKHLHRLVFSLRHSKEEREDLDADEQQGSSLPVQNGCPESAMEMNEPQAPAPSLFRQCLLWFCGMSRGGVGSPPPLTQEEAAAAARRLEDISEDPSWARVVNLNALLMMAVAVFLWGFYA
Description: as §1
To construct the SGLT2 expression vector (KL224), the SLC5A2 gene (homologous to NM_003041) was amplified from a cDNA library using standard PCR technology and cloned over NheI/XhoI sites into PCI-neo expression vector (Promega) containing neomycin as a selection marker. In this vector, transcription used the enhancer/promoter of human cytomegalovirus and the SV40 polyadenylation signal.
The final vector KL224 together with an additional vector containing a dihydrofolate reductase gene as a selection marker was introduced into cells. Transfection into BHK21 cells (ATCC CCL-10), cultivated in DMEM medium (GIBCO/BRL), supplemented with 10% foetal calf serum (FCS) and 20 mM glutamine, was carried out using calcium phosphate transfections according to Graham, F. L. and van der Ebb, A. J. (1973), Virology 52: 456 with 5-20 μg of uncut plasmids for 10^7 cells. Stable transfectants were selected in medium containing 1 mg/ml of G418 (GIBCO/BRL) and 20-5000 nM methotrexate as final concentration, where only cells which expressed the neomycin gene and overexpressed the dhfr gene were able to grow. After growth for 2-3 weeks, the cells were cloned (0.5 cells/well) and the clones were investigated for SGLT expression in the radioactive uptake assay.
Principally, uptake of ^14C-α-methyl-D-glucopyranoside (AMG) in, for example, Xenopus oocytes injected with the corresponding cRNA has been described (for example Wen-Sen Lee et al. (1994), J. Biol. Chem. 269, 12032-12039; Guofeng You et al. (1995), J. Biol. Chem. 270, 29365-29371).
as §2, §3

Row | SMILES | IC50 (SGLT1) [µM] | IC50 (SGLT2) [µM]
1 | COc1ccc(-c2nc3ccccn3c2Nc2c(C)cccc2Cl)c(OCC(N)=O)c1 [Compound A15, 2-[2-(Aminocarbonylmethoxy)-4-methoxy-phenyl]-3-(2-chloro-6-methylphenylamino)-imidazo[1,2-a]pyridine] | 1 to 10 | 0.01 to 1
2 | COc1ccc(-c2nc3ccccn3c2Nc2c(Cl)cccc2Cl)c(OCC(N)=O)c1 [Compound A16, 2-[2-(Aminocarbonylmethoxy)-4-methoxy-phenyl]-3-(2,6-dichlorophenylamino)imidazo-[1,2-a]pyridine] | 1 to 10 | 0.01 to 1
3 | Cc1ccc(-c2nc3ccccn3c2Nc2c(C)cccc2C)c(OCC(N)=O)c1 [Compound A17, 2-[2-(Aminocarbonylmethoxy)-4-methylphenyl]-3-(2,6-dimethylphenylamino)-imidazo[1,2-a]-pyridine] | > 10 | 0.01 to 1
4 | Cc1cc(C)c(-c2nc3ccccn3c2Nc2c(C)cccc2C)c(OCC(N)=O)c1 [Compound A168, 2-[2-(Aminocarbonylmethoxy)-4,6-dimethyl-phenyl]-3-(2,6-dimethylphenylamino)imidazo-[1,2-a]pyridine] | > 10 | 0.01 to 1
5 | Cc1cc(C)c(-c2nc3ccc(F)cn3c2Nc2c(C)cccc2C)c(OCC(N)=O)c1 [Compound A169, 2-[2-(Aminocarbonylmethoxy)-4,6-dimethyl-phenyl]-3-(2,6-dimethylphenylamino)-6-fluoro-imidazo[1,2-a]pyridine] | 1 to 10 | 0.01 to 1
6 | COc1cc(C)c(-c2nc3ccccn3c2Nc2c(C)cccc2C)c(OCC(N)=O)c1 [Compound A172, 2-[2-(Aminocarbonylmethoxy)-4-methoxy-6-methylphenyl]-3-(2,6-dimethylphenylamino)-imidazo[1,2-a]pyridine] | > 10 | 0.01 to 1
7 | Cc1cccc(C)c1Nc1c(-c2c(C)cc(OCc3ccccc3)cc2OCC(N)=O)nc2ccccn12 [Compound A173, 2-[2-(Aminocarbonylmethoxy)-4-benzyloxy-6-methylphenyl]-3-(2,6-dimethylphenylamino)-imidazo[1,2-a]pyridine] | > 10 | > 10
8 | CCc1cccc(C)c1Nc1c(-c2ccccc2OCC(N)=O)nc2ccc(F)cn12 [Compound A174, 2-[2-(Aminocarbonylmethoxy)phenyl]-3-(2-methyl-6-ethylphenylamino)-6-fluoroimidazo-[1,2-a]pyridine] | > 10 | 0.01 to 1

Further lines, results first:

Row | IC50 (SGLT1) [µM] | IC50 (SGLT2) [µM] | SMILES
9 | 1 to 10 | 0.01 to 1 | CCc1cc(O)cc(OCC(N)=O)c1-c1nc2ccc(F)cn2c1Nc1c(C)cccc1C [Compound A102, 2-[2-(Aminocarbonylmethoxy)-6-ethyl-4-hydroxy-phenyl]-3-(2,6-dimethylphenylamino)-6-fluoro-imidazo[1,2-a]pyridine]
10 | > 10 | 0.01 to 1 | CCc1cc(OC2CCCCO2)cc(OCC(N)=O)c1-c1nc2ccccn2c1Nc1c(C)cccc1C (centres unmarked) [Compound A166, 2-[2-(Aminocarbonylmethoxy)-4-(tetra-hydropyran-2-yloxy)-6-ethylphenyl]-3-(2,6-dimethylphenylamino)imidazo[1,2-a]pyridine]
11 | > 10 | 0.01 to 1 | CCc1cc(OCC(N)=O)cc(OCC(N)=O)c1-c1nc2ccccn2c1Nc1c(C)cccc1C [Compound A167, 2-[2-(Aminocarbonylmethoxy)-4-(amino-carbonylmethoxy)-6-ethylphenyl]-3-(2,6-dimethylphenylamino)imidazo[1,2-a]pyridine]
12 | 1 to 10 | 0.01 to 1 | Cc1cccc(C)c1Nc1c(-c2c(C)cc(OCC(N)=O)cc2OCC(N)=O)nc2ccccn12 [Compound A170, 2-[2-(Aminocarbonylmethoxy)-4-(amino-carbonylmethoxy)-6-methylphenyl]-3-(2,6-dimethylphenylamino)imidazo[1,2-a]pyridine]
13 | > 10 | 0.01 to 1 | Cc1cccc(C)c1Nc1c(-c2c(C)cc(O)cc2OCC(N)=O)nc2ccccn12 [Compound A171, 2-[2-(Aminocarbonylmethoxy)-4-hydroxy-6-methylphenyl]-3-(2,6-dimethylphenylamino)-imidazo[1,2-a]pyridine]
14 | > 10 | 0.01 to 1 | Cc1cccc(C)c1Nc1c(-c2c(O)cccc2OCC(N)=O)nc2ccc(F)cn12 [Compound A175, 2-[2-(Aminocarbonylmethoxy)-6-hydroxyphenyl]-3-(2,6-dimethylphenylamino)-6-fluoroimidazo-[1,2-a]pyridine]
15 | > 10 | 1 to 10 | Cc1cccc(C)c1Nc1c(-c2c(O)cccc2OCC(N)=O)nc2ccccn12 [Compound A176, 2-[2-(Aminocarbonylmethoxy)-6-hydroxyphenyl]-3-(2,6-dimethylphenylamino)imidazo[1,2-a]-pyridine]
16 | > 10 | 0.01 to 1 | Cc1cccc(C)c1Nc1c(-c2c(C)cc(OC3CCCCO3)cc2OCC(N)=O)nc2ccc(F)cn12 (centres unmarked) [Compound A177, 2-[2-(Aminocarbonylmethoxy)-4-(tetra-hydropyran-2-yloxy)-6-methylphenyl]-3-(2,6-dimethylphenylamino)-6-fluoroimidazo[1,2-a]-pyridine]
